Results as given in publication PMC6783499, “Heteroglycoclusters With Dual Nanomolar Affinities for the Lectins LecA and LecB From Pseudomonas aeruginosa” (Frontiers in Chemistry, 2019).

Biological target: T1, LecB (Pseudomonas aeruginosa, UniProt Q9HYN5)
T1 construct: made in house; host or cells: Escherichia coli BL21(DE3)
Experiment: biochemical
Type: binding
Settings: for n (stoichiometry, glycocluster molecules per lectin monomer): pH 7.5; for –ΔG / –ΔH / −TΔS: per mole of glycocluster; for α (relative potency compared to the monovalent compound) / β (relative potency per sugar unit): relative to αFuc-OMe
Method: The resulting hGCs were tested in solution with lectins by Isothermal Titration Calorimetry (Table 1) and their binding properties were compared with homoclusters 15–20 (Berthet et al., [2013]; Thomas et al., [2015b]) displaying either 4 and 16 βGal or αFuc units attached with an oxime or a triazole linker (Figure 3). […] Experiments were performed in direct injection mode (i.e., ligand in syringe and protein in cell) to minimize aggregation problems.
All chemical reagents were purchased from Aldrich (Saint Quentin Fallavier, France) or Acros (Noisy-Le-Grand, France). All protected amino acids and Fmoc-Gly-Sasrin® resin was obtained from Advanced ChemTech Europe (Brussels, Belgium). For peptides and glycopeptides, analytical RP-HPLC was performed on Waters system equipped with a Waters 2695 separations module and a Waters 2487 Dual Absorbance UV/Visible Detector. Analysis was carried out at 1.0 mL/min (EC 125/3 nucleosil 300-5 C18) with UV monitoring at 214 nm and 250 nm using a linear A–B gradient (buffer A: 0.09% CF3CO2H in water; buffer B: 0.09% CF3CO2H in 90% acetonitrile). Purifications were carried out at 22.0 mL/min (VP 250/21 nucleosil 100-7 C18) with UV monitoring at 214 nm and 250 nm using a linear A–B gradient. HRMS and ESI-MS and HRMS spectra of peptides and glycopeptides were measured on an Esquire 3000 spectrometer from Bruker. Lectins LecA and LecB were produced in recombinant form in Escherichia coli BL21(DE3) as described previously (Mitchell et al., [2005]; Blanchard et al., [2008]).
Other compounds were assayed with a VP-ITC isothermal titration calorimeter (Microcal). The experiments were carried out at 25°C. All glycocompounds and lectins LecB and LecA were dissolved in the same buffer composed of 20 mM Tris with 100 mM NaCl and 0.1 mM CaCl2 at pH 7.5. For PEAQ-ITC, the lectins were placed in the microcalorimeter cell (200 μL) at concentrations varying from 35 to 70 μM. […] For VP-ITC, the microcalorimeter cell (1.447 mL) contained the lectins with concentrations between 30 and 100 μM. A total of 30 injections of 10 μL were performed intervals of 5 min while stirring at 310 rpm with glycoclusters concentrations varying from […]. The experimental data were fitted to a theoretical titration curve using the Microcal PEAQ-ITC analysis software, with ΔH (enthalpy change), Ka (association constant), and N (number of binding sites per monomer) as adjustable parameters. Dissociation constant (Kd), free energy change (ΔG), and entropy contributions (TΔS) were derived from the previous ones. Two or three independent titrations were performed for each ligand tested.

[1] = ITC, 25°C, 20 mM Tris, 100 mM NaCl, 0.1 mM CaCl2, pH 7.5, ligand in syringe

T1 sequence (Q9HYN5 entry or part of it): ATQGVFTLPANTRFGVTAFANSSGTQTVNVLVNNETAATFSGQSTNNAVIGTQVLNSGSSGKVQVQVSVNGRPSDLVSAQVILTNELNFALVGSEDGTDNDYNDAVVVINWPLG

SMILES	–ΔH (binding enthalpy) (ITC)	n (stoichiometry, glycocluster molecules per lectin monomer) (ITC, 25°C)	–ΔG (ITC, 25°C)	–ΔH (ITC, 25°C)	−TΔS (ITC, 25°C)	Kd [1]	α (relative potency compared to the monovalent compound)	Kd (ITC, rounded value)	β (relative potency per sugar unit)	binding improvement on multimerisation of tetravalent to hexadecavalent dendrimer (19 versus tetravalent 15)	binding to LecB in words (abstract)
C[C@@H]1NC(=O)[C@H](CCCCNC(=O)/C=N/O[C@@H]2O[C@@H](C)[C@@H](O)[C@@H](O)[C@@H]2O)NC(=O)CNC(=O)[C@@H]2CCCN2C(=O)[C@H](CCCCNC(=O)/C=N/O[C@@H]2O[C@@H](C)[C@@H](O)[C@@H](O)[C@@H]2O)NC(=O)[C@H](CCCCNC(=O)CO/N=C/C(=O)NCCCC[C@@H]2NC(=O)CNC(=O)[C@@H]3CCCN3C(=O)[C@H](CCCCNC(=O)/C=N/OCC(=O)NCCCC[C@@H]3NC(=O)[C@H](CCCCNC(=O)/C=N/O[C@@H]4O[C@@H](C)[C@@H](O)[C@@H](O)[C@@H]4O)NC(=O)CNC(=O)[C@@H]4CCCN4C(=O)[C@H](CCCCNC(=O)/C=N/O[C@@H]4O[C@@H](C)[C@@H](O)[C@@H](O)[C@@H]4O)NC(=O)[C@H](C)NC(=O)[C@H](CCCCNC(=O)/C=N/O[C@@H]4O[C@@H](C)[C@@H](O)[C@@H](O)[C@@H]4O)NC(=O)CNC(=O)[C@@H]4CCCN4C(=O)[C@H](CCCCNC(=O)/C=N/O[C@@H]4O[C@@H](C)[C@@H](O)[C@@H](O)[C@@H]4O)NC3=O)NC(=O)[C@H](CCCCN)NC(=O)[C@H](CCCCNC(=O)CO/N=C/C(=O)NCCCC[C@@H]3NC(=O)[C@H](CCCCn4cc(CO[C@H]5O[C@H](CO)[C@@H](O)[C@H](O)[C@@H]5O)nn4)NC(=O)CNC(=O)[C@@H]4CCCN4C(=O)[C@H](CCCCn4cc(CO[C@H]5O[C@H](CO)[C@@H](O)[C@H](O)[C@@H]5O)nn4)NC(=O)[C@H](C)NC(=O)[C@H](CCCCn4cc(CO[C@H]5O[C@H](CO)[C@@H](O)[C@H](O)[C@@H]5O)nn4)NC(=O)CNC(=O)[C@@H]4CCCN4C(=O)[C@H](CCCCn4cc(CO[C@H]5O[C@H](CO)[C@@H](O)[C@H](O)[C@@H]5O)nn4)NC3=O)NC(=O)CNC(=O)[C@@H]3CCCN3C(=O)[C@H](CCCCNC(=O)CO/N=C/C(=O)NCCCC[C@@H]3NC(=O)[C@H](CCCCn4cc(CO[C@H]5O[C@H](CO)[C@@H](O)[C@H](O)[C@@H]5O)nn4)NC(=O)CNC(=O)[C@@H]4CCCN4C(=O)[C@H](CCCCn4cc(CO[C@H]5O[C@H](CO)[C@@H](O)[C@H](O)[C@@H]5O)nn4)NC(=O)[C@H](C)NC(=O)[C@H](CCCCn4cc(CO[C@H]5O[C@H](CO)[C@@H](O)[C@H](O)[C@@H]5O)nn4)NC(=O)CNC(=O)[C@@H]4CCCN4C(=O)[C@H](CCCCn4cc(CO[C@H]5O[C@H](CO)[C@@H](O)[C@H](O)[C@@H]5O)nn4)NC3=O)NC(=O)[C@H](C)NC2=O)NC(=O)[C@H](CCCCNC(=O)/C=N/O[C@@H]2O[C@@H](C)[C@@H](O)[C@@H](O)[C@@H]2O)NC(=O)CNC(=O)[C@@H]2CCCN2C(=O)[C@H](CCCCNC(=O)/C=N/O[C@@H]2O[C@@H](C)[C@@H](O)[C@@H](O)[C@@H]2O)NC1=O [Compound 12]	50.7 kcal/mol	0.08	9.66 kcal/mol	50.43 ± 0.72 kcal/mol	40.77 kcal/mol	85 ± 16 nM	5.1				
C[C@@H]1NC(=O)[C@H](CCCCn2cc(CO[C@@H]3O[C@@H](C)[C@@H](O)[C@@H](O)[C@@H]3O)nn2)NC(=O)CNC(=O)[C@@H]2CCCN2C(=O)[C@H](CCCCn2cc(CO[C@@H]3O[C@@H](C)[C@@H](O)[C@@H](O)[C@@H]3O)nn2)NC(=O)[C@H](CCCCN)NC(=O)[C@H](CCCCn2cc(CO[C@@H]3O[C@@H](C)[C@@H](O)[C@@H](O)[C@@H]3O)nn2)NC(=O)CNC(=O)[C@@H]2CCCN2C(=O)[C@H](CCCCn2cc(CO[C@@H]3O[C@@H](C)[C@@H](O)[C@@H](O)[C@@H]3O)nn2)NC1=O [Compound 16]		0.19	8.8 kcal/mol	28.56 ± 0.24 kcal/mol	19.8 kcal/mol	367 ± 26 nM	1.2	300 nM	0.3		
C[C@@H]1NC(=O)[C@H](CCCCNC(=O)/C=N/OCC(=O)NCCCC[C@@H]2NC(=O)[C@H](CCCCNC(=O)/C=N/O[C@@H]3O[C@@H](C)[C@@H](O)[C@@H](O)[C@@H]3O)NC(=O)CNC(=O)[C@@H]3CCCN3C(=O)[C@H](CCCCNC(=O)/C=N/O[C@@H]3O[C@@H](C)[C@@H](O)[C@@H](O)[C@@H]3O)NC(=O)[C@H](C)NC(=O)[C@H](CCCCNC(=O)/C=N/O[C@@H]3O[C@@H](C)[C@@H](O)[C@@H](O)[C@@H]3O)NC(=O)CNC(=O)[C@@H]3CCCN3C(=O)[C@H](CCCCNC(=O)/C=N/O[C@@H]3O[C@@H](C)[C@@H](O)[C@@H](O)[C@@H]3O)NC2=O)NC(=O)CNC(=O)[C@@H]2CCCN2C(=O)[C@H](CCCCNC(=O)/C=N/OCC(=O)NCCCC[C@@H]2NC(=O)[C@H](CCCCNC(=O)/C=N/O[C@@H]3O[C@@H](C)[C@@H](O)[C@@H](O)[C@@H]3O)NC(=O)CNC(=O)[C@@H]3CCCN3C(=O)[C@H](CCCCNC(=O)/C=N/O[C@@H]3O[C@@H](C)[C@@H](O)[C@@H](O)[C@@H]3O)NC(=O)[C@H](C)NC(=O)[C@H](CCCCNC(=O)/C=N/O[C@@H]3O[C@@H](C)[C@@H](O)[C@@H](O)[C@@H]3O)NC(=O)CNC(=O)[C@@H]3CCCN3C(=O)[C@H](CCCCNC(=O)/C=N/O[C@@H]3O[C@@H](C)[C@@H](O)[C@@H](O)[C@@H]3O)NC2=O)NC(=O)[C@H](CCCCN)NC(=O)[C@H](CCCCNC(=O)/C=N/OCC(=O)NCCCC[C@@H]2NC(=O)[C@H](CCCCNC(=O)/C=N/O[C@@H]3O[C@@H](C)[C@@H](O)[C@@H](O)[C@@H]3O)NC(=O)CNC(=O)[C@@H]3CCCN3C(=O)[C@H](CCCCNC(=O)/C=N/O[C@@H]3O[C@@H](C)[C@@H](O)[C@@H](O)[C@@H]3O)NC(=O)[C@H](C)NC(=O)[C@H](CCCCNC(=O)/C=N/O[C@@H]3O[C@@H](C)[C@@H](O)[C@@H](O)[C@@H]3O)NC(=O)CNC(=O)[C@@H]3CCCN3C(=O)[C@H](CCCCNC(=O)/C=N/O[C@@H]3O[C@@H](C)[C@@H](O)[C@@H](O)[C@@H]3O)NC2=O)NC(=O)CNC(=O)[C@@H]2CCCN2C(=O)[C@H](CCCCNC(=O)/C=N/OCC(=O)NCCCC[C@@H]2NC(=O)[C@H](CCCCNC(=O)/C=N/O[C@@H]3O[C@@H](C)[C@@H](O)[C@@H](O)[C@@H]3O)NC(=O)CNC(=O)[C@@H]3CCCN3C(=O)[C@H](CCCCNC(=O)/C=N/O[C@@H]3O[C@@H](C)[C@@H](O)[C@@H](O)[C@@H]3O)NC(=O)[C@H](C)NC(=O)[C@H](CCCCNC(=O)/C=N/O[C@@H]3O[C@@H](C)[C@@H](O)[C@@H](O)[C@@H]3O)NC(=O)CNC(=O)[C@@H]3CCCN3C(=O)[C@H](CCCCNC(=O)/C=N/O[C@@H]3O[C@@H](C)[C@@H](O)[C@@H](O)[C@@H]3O)NC2=O)NC1=O [Compound 19]		0.06	10 kcal/mol	76.72 ± 3.35 kcal/mol	66.68 kcal/mol	44 ± 5 nM	9.8		0.6	10 fold	nanomolar affinity
